≈ marks a conversion by molar mass, not a printed value. Like-named read-outs stand apart in the source and are kept apart here.
Tests used:
Type in all cases: cell-based
[1] = tested on: Mycobacterium tuberculosis H37Rv; assay: Microplate Alamar Blue assay (MABA) MIC, M. tuberculosis; conditions: read-out: MIC Mycobacterium tuberculosis H37Rv
From the text: (§1) Minimal inhibitory concentrations (MICs) in Mycobacterium tuberculosis H37Rv and Mycobacterium avium ATCC 25291 were quantified using microplate Alamar Blue assays as described (MABA; [Collins, L. & Franzblau, S. (1997) Microplate Alamar Blue assay versus BACTEC 460 system for high-throughput screening of compounds against Mycobacterium tuberculosis and Mycobacterium avium. Antimicrob. Agents Chemother. 41, 1004-1009]).

[2] = tested on: Mycobacterium avium ATCC 25291; assay: Microplate Alamar Blue assay (MABA) MIC, M. avium; conditions: ATCC25291, M. avium ATCC 25291
From the text: as §1

[3] = tested on: Mycobacterium smegmatis ATCC 19420; assay: Broth microdilution MIC, M. smegmatis; conditions: Mycolicibacterium smegmatis
From the text: MICs in Mycobacterium smegmatis ATCC 19420 and Mycobacterium smegmatis ATCC 19420 derivatives were quantified using broth microdilution assays as described [Clinical and Laboratory Standards Institute (CLSI/NCCLS) (2009) Methods for Dilution Antimicrobial Susceptibility Tests for Bacteria That Grow Aerobically; Approved Standard, Eighth Edition. CLIS Document M07-A8 (CLIS, Wayne Pa.)].

[4] = tested on: Vero E6 ATCC CRL1586 cells; assay: Mammalian-cell cytotoxicity, minimal cytotoxic concentration (CellTiter96)
Protocol: Minimal cytotoxic concentrations (MCCs) against mammalian cells in culture were determined using Vero E6 ATCC CRL1586 cells and the CellTiter96 assay kit (Promega, Inc.). […]

[5] = ATCC19420, M. smegmatis ATCC 19420, read-out: MIC Mycobacterium smegmatis ATCC 19420
[6] = ATCC19420, broth microdilution assays, M. smegmatis ATCC19420, read-out: Inhibition of mycobacterial growth in culture (MICs)

Structure (SMILES)	MIC [1]	MIC [2]	MIC [3, 5]	MIC [3, 6]	MCC mammalian cells Vero E6 ATCC CRL1586 [4]
O=C(N[C@@H](Cc1ccccc1)C(=O)Nc1cc(F)ccc1N1CCNCC1)c1ccccc1F (racemic) [IX-214b]	12.5 µg/mL (≈ 26.9 µM)	12.5 µg/mL (≈ 26.9 µM)	6.25 µg/mL (≈ 13.5 µM)		
O=C(N[C@@H](Cc1ccccc1)C(=O)Nc1cc(Cl)ccc1N1CCNCC1)c1ccccc1F (racemic) [IX-274b]	6.25 µg/mL (≈ 13 µM)	6.25 µg/mL (≈ 13 µM)	6.25 µg/mL (≈ 13 µM)		
O=C(NC(Cc1ccccc1)C(=O)Nc1ccccc1F)c1ccccc1 [AAP3, Nα-benzoyl-N-(2-fluorophenyl)-D/L-phenylalaninamide]				1.56 µg/mL (≈ 4.3 µM)	
O=C(NC(Cc1ccccc1)C(=O)Nc1ccccc1)c1ccccc1 [AAP4, Nα-benzoyl-N-phenyl-D/L-phenylalaninamide]				0.78 µg/mL (≈ 2.26 µM)	
O=C(NC(Cc1ccccc1)C(=O)Nc1ccncc1)c1ccccc1 [AAP5, Nα-benzoyl-N-(4-pyridyl)-D/L-phenylalaninamide]				12.5 µg/mL (≈ 36.2 µM)	
O=C(NC(Cc1ccccc1)C(=O)Nc1ccccn1)c1ccccc1 (stereo not drawn) [AAP6]				1.56 µg/mL (≈ 4.52 µM)	
COc1cccc(NC(=O)C(Cc2ccccc2)NC(=O)c2ccccc2)c1C (stereo not drawn) [I-18]	> 50 µg/mL	> 50 µg/mL	0.78 µg/mL (≈ 2.01 µM)		>100 µg/mL
CCOc1cccc(C(=O)NC(Cc2ccccc2)C(=O)Nc2ccccc2C)c1 (stereo not drawn) [I-37]	> 50 µg/mL		25 µg/mL (≈ 62.1 µM)		5 µg/mL
CC(C)Oc1ccccc1NC(=O)C(Cc1ccccc1)NC(=O)c1ccccc1 (stereo not drawn) [I-50]	12.5 µg/mL (≈ 31.1 µM)	> 50 µg/mL	0.78 µg/mL (≈ 1.94 µM)		>100 µg/mL
Cc1c(NC(=O)C(Cc2ccccc2)NC(=O)c2ccccc2)cccc1OC(C)C (stereo not drawn) [I-51]	> 50 µg/mL	> 50 µg/mL	1.56 µg/mL (≈ 3.75 µM)		>100 µg/mL
O=C(NC(Cc1ccccc1)C(=O)Nc1ccccc1OC(F)F)c1ccccc1 (stereo not drawn) [I-61, N-(1-((2-(difluoromethoxy)phenyl)amino)-1-oxo-3-phenylpropan-2-yl)benzamide]	6.25 µg/mL (≈ 15.2 µM)	6.25 µg/mL (≈ 15.2 µM)	0.39 µg/mL (≈ 0.95 µM)		>100 µg/mL
Cc1ccccc1NC(=O)C(Cc1ccccc1)NC(=O)c1cccc(OC(F)F)c1 (stereo not drawn) [I-70]	6.25 µg/mL (≈ 14.7 µM)	> 50 µg/mL	50 µg/mL (≈ 118 µM)		90 µg/mL
Cc1c(F)cccc1NC(=O)C(Cc1ccccc1)NC(=O)c1ccccc1 (stereo not drawn) [I-73]	> 50 µg/mL	> 50 µg/mL	0.78 µg/mL (≈ 2.07 µM)		19 µg/mL
Cc1cccc(C(=O)NC(Cc2ccccc2)C(=O)Nc2ccccc2C)c1 (stereo not drawn) [I-113]	> 50 µg/mL		1.56 µg/mL (≈ 4.19 µM)		>100 µg/mL
CCc1cccc(C(=O)NC(Cc2ccccc2)C(=O)Nc2ccccc2C)c1 (stereo not drawn) [I-124]	> 50 µg/mL		25 µg/mL (≈ 64.7 µM)		>39 µg/mL
Cc1ccccc1NC(=O)C(Cc1ccc(N2CCOCC2)cc1)NC(=O)c1ccccc1 (stereo not drawn) [I-188]	25 µg/mL (≈ 56.4 µM)		6.25 µg/mL (≈ 14.1 µM)		35 µg/mL
Cc1c(NC(=O)C(Cc2ccccc2)NC(=O)c2ccccc2)cccc1-n1cncn1 (stereo not drawn) [I-204]	25 µg/mL (≈ 58.8 µM)		3.12 µg/mL (≈ 7.34 µM)		>100 µg/mL
O=C(NC(Cc1ccccc1)C(=O)Nc1ccccc1-n1ccnn1)c1ccccc1 (stereo not drawn) [I-214]	> 50 µg/mL		3.12 µg/mL (≈ 7.59 µM)		>100 µg/mL
Cc1c(NC(=O)C(Cc2ccccc2)NC(=O)c2ccccc2)cccc1-n1ccnn1 (stereo not drawn) [I-215]	> 50 µg/mL		3.12 µg/mL (≈ 7.34 µM)		>100 µg/mL
O=C(NC(Cc1ccccc1)C(=O)Nc1ccccc1-n1cnnn1)c1ccccc1 (stereo not drawn) [I-225]	> 50 µg/mL		6.25 µg/mL (≈ 15.2 µM)		>100 µg/mL

Structure (SMILES)	MIC [1]	MIC [2]	MIC [3, 5]	MIC [3, 6]	MCC mammalian cells Vero E6 ATCC CRL1586 [4]
Cc1c(NC(=O)C(Cc2ccccc2)NC(=O)c2ccccc2)cccc1-n1cnnn1 (stereo not drawn) [I-226]	> 50 µg/mL		0.78 µg/mL (≈ 1.83 µM)		>100 µg/mL
O=C(NC(Cc1ccc(O)cc1)C(=O)Nc1cccc2cnccc12)c1ccccc1 (stereo not drawn) [IX-19, N-(3-(4-hydroxyphenyl)-1-(isoquinolin-5-ylamino)-1-oxopropan-2-yl)benzamide]	6.25 µg/mL (≈ 15.2 µM)		0.39 µg/mL (≈ 0.948 µM)		42 µg/mL
Cc1ccccc1NC(=O)C(Cc1ccc(O)c(O)c1)NC(=O)c1ccccc1 (stereo not drawn) [IX-25, N-(3-(3,4-dihydroxyphenyl)-1-oxo-1-(o-tolylamino)propan-2-yl)benzamide]			1.56 µg/mL (≈ 4 µM)		21 µg/mL
Cc1ccc(Cl)cc1NC(=O)[C@@H](Cc1ccccc1)NC(=O)c1ccccc1F [IX-55a]	0.78 µg/mL (≈ 1.9 µM)	0.78 µg/mL (≈ 1.9 µM)	0.073 µg/mL (≈ 0.178 µM)		
Cc1ccc(Cl)cc1NC(=O)[C@H](Cc1ccccc1)NC(=O)c1ccccc1F [IX-55b]	> 50 µg/mL	> 50 µg/mL	25 µg/mL (≈ 60.8 µM)		
O=C(NC(Cc1ccccc1)C(=O)Nc1cccc2ncccc12)c1ccccc1F (stereo not drawn) [IX-58, 2-fluoro-N-(1-oxo-3-phenyl-1-(quinolin-5-ylamino)propan-2-yl)benzamide]			1.56 µg/mL (≈ 3.77 µM)		78 µg/mL
Cc1ccccc1NC(=O)C(Cc1ccc(O)cc1)NC(=O)c1ccccc1C (stereo not drawn) [IX-66, N-(3-(4-hydroxyphenyl)-1-oxo-1-(o-tolylamino)propan-2-yl)-2-methylbenzamide]	50 µg/mL (≈ 129 µM)		1.56 µg/mL (≈ 4.02 µM)		>100 µg/mL
O=C(NC(Cc1ccc(O)cc1)C(=O)Nc1cccc2c1OCO2)c1ccccc1Br (stereo not drawn) [IX-125, N-(1-(benzo[d][1,3]dioxol-4-ylamino)-3-(4-hydroxyphenyl)-1-oxopropan-2-yl)-2-bromobenzamide]	25 µg/mL (≈ 51.7 µM)	50 µg/mL (≈ 103 µM)	1.56 µg/mL (≈ 3.23 µM)		
CC(=O)N1CCN(c2ccccc2NC(=O)C(Cc2ccccc2)NC(=O)c2ccccc2)CC1 (stereo not drawn) [IX-236, N-(1-((2-(4-acetylpiperazin-1-yl)phenyl)amino)-1-oxo-3-phenyl-propan-2-yl)benzamide]	6.25 µg/mL (≈ 13.3 µM)	6.25 µg/mL (≈ 13.3 µM)	0.195 µg/mL (≈ 0.414 µM)		
CNC(=O)N1CCN(c2ccccc2NC(=O)C(Cc2ccccc2)NC(=O)c2ccccc2)CC1 (stereo not drawn) [IX-238, 4-(2-(2-benzamido-3-phenylpropanamido)phenyl)-N-methyl-piperazine-1-carboxamide]	1.56 µg/mL (≈ 3.21 µM)	1.56 µg/mL (≈ 3.21 µM)	0.195 µg/mL (≈ 0.402 µM)		
O=C(NC(Cc1ccccc1)C(=O)Nc1cc(F)ccc1N1CCN(CCO)CC1)c1cccs1 (stereo not drawn) [IX-247, N-(1-((5-fluoro-2-(4-(2-hydroxyethyl)piperazin-1-yl)phenyl)amino)-1-oxo-3-phenylpropan-2-yl)thiophene-2-carboxamide]	1.56 µg/mL (≈ 3.14 µM)	3.12 µg/mL (≈ 6.29 µM)	0.39 µg/mL (≈ 0.785 µM)		
COc1ccc(F)cc1NC(=O)C(Cc1ccccc1)NC(=O)c1ccccc1C (stereo not drawn) [IX-277, N-(1-((5-fluoro-2-methoxyphenyl)amino)-1-oxo-3-phenylpropan-2-yl)-2-methylbenzamide]	0.31 µg/mL (≈ 0.763 µM)	0.39 µg/mL (≈ 0.96 µM)	0.39 µg/mL (≈ 0.96 µM)		
Cn1ncc2c(NC(=O)C(Cc3ccccc3)NC(=O)c3ccccc3F)cccc21 (stereo not drawn) [IX-296, 2-fluoro-N-(1-((1-methyl-1H-indazol-4-yl)amino)-1-oxo-3-phenyl-propan-2-yl)benzamide]	1.56 µg/mL (≈ 3.75 µM)	1.56 µg/mL (≈ 3.75 µM)	0.78 µg/mL (≈ 1.87 µM)		
Cn1nnc2cccc(NC(=O)C(Cc3ccccc3)NC(=O)c3ccccc3F)c21 (stereo not drawn) [IX-300, 2-fluoro-N-(1-((1-methyl-1H-benzo[d][1,2,3]triazol-7-yl)amino)-1-oxo-3-phenylpropan-2-yl)benzamide]	6.25 µg/mL (≈ 15 µM)	6.25 µg/mL (≈ 15 µM)	1.56 µg/mL (≈ 3.74 µM)		
Cc1ccccc1C(=O)NC(Cc1ccccc1)C(=O)Nc1cccc2nnn(C)c12 (stereo not drawn) [IX-301, 2-methyl-N-(1-((1-methyl-1H-benzo[d][1,2,3]triazol-7-yl)amino)-1-oxo-3-phenylpropan-2-yl)benzamide]	6.25 µg/mL (≈ 15.1 µM)	3.13 µg/mL (≈ 7.57 µM)	0.39 µg/mL (≈ 0.943 µM)		
CC1CN(c2ccc(F)cc2NC(=O)C(Cc2ccccc2)NC(=O)c2ccccc2F)CCN1 (stereo not drawn) [IX-305, 2-fluoro-N-(1-((5-fluoro-2-(3-methylpiperazin-1-yl)phenyl)amino)-1-oxo-3-phenylpropan-2-yl)benzamide]	1.56 µg/mL (≈ 3.26 µM)	12.5 µg/mL (≈ 26.1 µM)	0.78 µg/mL (≈ 1.63 µM)		
NC1CCN(c2ccc(F)cc2NC(=O)C(Cc2ccccc2)NC(=O)c2ccccc2F)C1 (stereo not drawn) [IX-306, N-(1-((2-(3-aminopyrrolidin-1-yl)-5-fluorophenyl)amino)-1-oxo-3-phenylpropan-2-yl)-2-fluorobenzamide]			0.78 µg/mL (≈ 1.68 µM)		
O=C(NC(Cc1ccccc1)C(=O)Nc1cc(F)ccc1N1CC2CCCNC2C1)c1ccccc1F (stereo not drawn) [IX-307, 2-fluoro-N-(1-((5-fluoro-2-(octahydro-6H-pyrrolo[3,4-b]pyridin-6-yl)-phenyl)amino)-1-oxo-3-phenylpropan-2-yl)benzamide]	12.5 µg/mL (≈ 24.8 µM)	25 µg/mL (≈ 49.5 µM)	6.12 µg/mL (≈ 12.1 µM)		
CC1CN(c2ccc(F)cc2NC(=O)C(Cc2ccccc2)NC(=O)c2ccccc2F)CC(C)N1 (stereo not drawn) [IX-308, N-(1-((2-(3,5-dimethylpiperazin-1-yl)-5-fluorophenyl)amino)-1-oxo-3-phenylpropan-2-yl)-2-fluorobenzamide]	3.13 µg/mL (≈ 6.35 µM)	< 0.39 µg/mL	0.39 µg/mL (≈ 0.792 µM)		

Reference: patent US9919998B2, “Antibacterial agents: Nα-aroyl-N-aryl-phenylalaninamides” (priority 2014, dated 2018)
